Several values for one entry are separate records, joined by “and”; a condition that tells them apart may be missing. Equal entries are not always repeated. Square brackets hold non-standard residues; d marks the D form. Peptide text beside a SMILES is read from it. Cha = N[C@@H](CC1CCCCC1)C(=O)O; dCha = N[C@H](CC1CCCCC1)C(=O)O
Experiments:
Type in all cases: cell-based
C5a1 [1] = molecular target: T1, C5a1 (Homo sapiens, UniProt P21730); assay: pT324/pS327-C5a1 7TM phosphorylation assay; settings: for Emax: read-out: Emax (% Control C028) pT324/pS327-C5a1
T1 construct: host or cells: Control-HEK293, ΔGRK2/3-HEK293, ΔGRK5/6-HEK293, stably expressing
T1 sequence (P21730 1-350): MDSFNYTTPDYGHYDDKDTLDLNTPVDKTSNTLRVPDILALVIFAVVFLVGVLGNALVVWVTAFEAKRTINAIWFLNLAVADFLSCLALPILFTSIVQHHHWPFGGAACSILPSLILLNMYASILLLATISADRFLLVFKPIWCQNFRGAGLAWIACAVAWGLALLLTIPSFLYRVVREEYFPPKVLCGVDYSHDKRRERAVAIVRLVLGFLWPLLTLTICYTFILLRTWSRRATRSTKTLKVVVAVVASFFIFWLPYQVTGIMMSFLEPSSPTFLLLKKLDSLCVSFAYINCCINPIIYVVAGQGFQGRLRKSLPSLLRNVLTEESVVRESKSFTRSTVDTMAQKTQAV

C5a1 [2] = molecular target: T1, C5a1; assay: pS332/pS334-C5a1 7TM phosphorylation assay; settings: for Emax: read-out: Emax (% Control C028) pS332/pS334-C5a1
C5a1 [3] = molecular target: T1, C5a1; assay: pS338/pT339-C5a1 7TM phosphorylation assay
[4] = Control-C5aR1-HEK293, C028 3 µM
[5] = Control-C5aR1-HEK293, C028 10 µM (concentration series)
[6] = ΔGRK2/3-C5aR1-HEK293, C028 0.01 µM
[7] = ΔGRK2/3-C5aR1-HEK293, C028 0.3 µM
[8] = ΔGRK2/3-C5aR1-HEK293, C028 10 µM (concentration series)
[9] = ΔGRK5/6-C5aR1-HEK293, C028 0.01 µM
[10] = ΔGRK5/6-C5aR1-HEK293, C028 0.1 µM
[11] = C028 0.01 µM, Control-C5aR1-HEK293
[12] = C028 0.01 µM, ΔGRK2/3-C5aR1-HEK293
[13] = C028 0.01 µM, ΔGRK5/6-C5aR1-HEK293
[14] = C028 0.1 µM, ΔGRK5/6-C5aR1-HEK293
[15] = C028 3 µM, Control-C5aR1-HEK293

N=C(N)NCCC[C@@H](NC(=O)[C@H](CC1CCCCC1)NC(=O)[C@@H](CC1CCCCC1)NC(=O)[C@@H]1CCCN1C(=O)[C@H](CCCCN)NC(=O)[C@@H](N)Cc1ccccc1)C(=O)O [C028, FKP-(D-Cha)-Cha-r] (H-FKP[dCha][Cha][dR]-OH)
OD405 max pT324/pS327-C5a1 (C5a1 [1]): 1.26
OD405 min pT324/pS327-C5a1 (C5a1 [1]): 0.01
pT324/pS327 phosphorylation, normalized (C5a1 [1]; Control-C5aR1-HEK293, C028 0.01 µM): 6.54% and 2.09% and 2.38% and -0.26% and 4.73% and 4.23% and 0.13% and 0.29%
pT324/pS327-C5aR1 Phosphorylation Assay, raw signal (C5a1 [1]; Control-C5aR1-HEK293, C028 0.1 µM): 0.2603 and 0.2849 and 0.4452 and 0.4009 and 0.2355 and 0.392 and 0.2309 and 0.3621
pT324/pS327-C5aR1 Phosphorylation Assay, raw signal (C5a1 [1]; [4]): 0.8349 and 0.7369 and 1.3757 and 1.2873 and 1.162 and 1.2785 and 0.8805 and 0.8562
pT324/pS327 phosphorylation, normalized (C5a1 [1]; [4]): 120.88% and 95.08% and 81.14% and 86.44% and 112.69% and 137.00% and 71.21% and 88.89%
pT324/pS327 phosphorylation, normalized (C5a1 [1]; [5]): 119.78% and 104.86% and 86.39% and 115.09% and 117.11% and 104.93% and 106.33% and 104.22%
Emax (C5a1 [1]; Control-HEK293): 100%
EC50 (C5a1 [1]; pEC50 pT324/pS327-C5a1, Control-HEK293): 501 nM
EC50 (C5a1 [1]; pEC50 pT324/pS327-C5a1, ΔGRK2/3-HEK293): 631 nM
pT324/pS327-C5aR1 Phosphorylation Assay, raw signal (C5a1 [1]; [6]): 0.1906 and 0.2011 and 0.1388 and 0.1623 and 0.1923 and 0.1741 and 0.2414 and 0.2236
pT324/pS327 phosphorylation, normalized (C5a1 [1]; [6]): 5.63% and 2.70% and -1.25% and 2.28% and 0.48% and 3.13% and 6.18% and 3.90%
pT324/pS327-C5aR1 Phosphorylation Assay, raw signal (C5a1 [1]; ΔGRK2/3-C5aR1-HEK293, C028 0.1 µM): 0.3121 and 0.3742 and 0.1921 and 0.224 and 0.2885 and 0.3186 and 0.3064
pT324/pS327-C5aR1 Phosphorylation Assay, raw signal (C5a1 [1]; [7]): 0.5648 and 0.5979 and 0.3035 and 0.3146 and 0.4385 and 0.4523 and 0.4291 and 0.4848
pT324/pS327 phosphorylation, normalized (C5a1 [1]; [7]): 24.79% and 33.69% and 32.00% and 35.01% and 19.88% and 27.63% and 33.40% and 34.58%
pT324/pS327 phosphorylation, normalized (C5a1 [1]; ΔGRK2/3-C5aR1-HEK293, C028 1 µM): 57.50% and 41.29% and 46.21% and 58.02% and 41.79% and 38.21% and 68.95% and 53.84%
pT324/pS327-C5aR1 Phosphorylation Assay, raw signal (C5a1 [1]; ΔGRK2/3-C5aR1-HEK293, C028 3 µM): 0.9175 and 0.9435 and 0.5986 and 0.5479 and 0.9015 and 0.9692 and 0.812 and 0.8433
pT324/pS327-C5aR1 Phosphorylation Assay, raw signal (C5a1 [1]; [8]): 0.9308 and 0.9846 and 0.7517 and 0.6067 and 1.0697 and 0.9407 and 1.15 and 0.9163
pT324/pS327 phosphorylation, normalized (C5a1 [1]; [8]): 96.12% and 84.19% and 64.50% and 63.55% and 84.08% and 59.71% and 82.71% and 58.42%
Emax (C5a1 [1]; ΔGRK2/3-HEK293): 79.8%
pT324/pS327-C5aR1 Phosphorylation Assay, raw signal (C5a1 [1]; [9]): 0.1198 and 0.124 and 0.1546 and 0.0999 and 0.1081 and 0.164 and 0.1821
pT324/pS327 phosphorylation, normalized (C5a1 [1]; [9]): -1.74% and -1.49% and 1.46% and 0.52% and 6.96% and 2.95% and -0.44% and 0.0738%
pT324/pS327-C5aR1 Phosphorylation Assay, raw signal (C5a1 [1]; [10]): 0.1319 and 0.1326 and 0.1302 and 0.1434 and 0.1164 and 0.1306 and 0.173 and 0.1664
pT324/pS327 phosphorylation, normalized (C5a1 [1]; [10]): -0.96% and 0.29% and 1.64% and 0.38% and 2.18% and 3.49% and 1.29% and 7.61%
pT324/pS327-C5aR1 Phosphorylation Assay, raw signal (C5a1 [1]; ΔGRK5/6-C5aR1-HEK293, C028 0.3 µM): 0.1652 and 0.1629 and 0.1483 and 0.1906 and 0.1747 and 0.2126 and 0.1807
Emax (C5a1 [1]; ΔGRK5/6-HEK293): 27.8%
OD405 max pS332/pS334-C5a1 (C5a1 [2]): 1.06
OD405 min pS332/pS334-C5a1 (C5a1 [2]): 0.11
pS332/pS334 normalized (C5a1 [2]; [5]): 95.44% and 132.42% and 80.61% and 80.15% and 121.12% and 109.12% and 102.49% and 106.48%
pS332/pS334 (raw signal) (C5a1 [2]; Control-C5aR1-HEK293 run beside the ΔGRK2/3 block, C028 10 µM): 0.7901 and 0.7373 and 0.8202 and 0.7545 and 1.029 and 1.2201
Emax (C5a1 [2]; Control-HEK293): 100%
EC50 (C5a1 [2]; pEC50 pS332/pS334-C5a1, Control-HEK293): 398 nM
EC50 (C5a1 [2]; pEC50 pS332/pS334-C5a1, ΔGRK2/3-HEK293): 501 nM
pS332/pS334 (raw signal) (C5a1 [2]; ΔGRK2/3-C5aR1-HEK293, C028 0.01 µM, concentration series): 0.1764 and 0.1748 and 0.1484 and 0.1388 and 0.1181 and 0.1479 and 0.1441
pS332/pS334 (raw signal) (C5a1 [2]; ΔGRK2/3-C5aR1-HEK293, C028 1 µM, concentration series): 0.699 and 0.3955 and 0.6071 and 0.387 and 0.4065 and 0.4411 and 0.6614 and 0.6847
pS332/pS334 (raw signal) (C5a1 [2]; ΔGRK2/3-C5aR1-HEK293, C028 10 µM, first 0/10 µM column pair): 0.4715 and 0.6645 and 0.5267 and 0.3753 and 0.6914 and 0.6912 and 0.5711 and 0.6282
Emax (C5a1 [2]; ΔGRK2/3-HEK293): 70.2%
Emax (C5a1 [2]; ΔGRK5/6-HEK293): 50.8%
OD405 max pS338/pT339-C5a1 (C5a1 [3]): 0.97
OD405 min pS338/pT339-C5a1 (C5a1 [3]): 0.05
pS338/pS339 normalized (C5a1 [3]; [11]): 0.99% and 0.92% and 2.21% and 3.33% and 1.14% and 2.13% and -1.29% and -0.74%
pS338/pS339 signal, raw (C5a1 [3]; [11]): 0.1155 and 0.1223 and 0.1459 and 0.1501 and 0.1235 and 0.1345 and 0.146 and 0.1476
pS338/pS339 normalized (C5a1 [3]; [12]): 2.29% and 0.59% and -0.76% and -0.97% and -2.55% and -1.82% and -0.06% and 0.89%
pS338/pS339 signal, raw (C5a1 [3]; [12]): 0.0952 and 0.0932 and 0.1355 and 0.1425 and 0.1714 and 0.1765 and 0.119 and 0.1119
pS338/pS339 normalized (C5a1 [3]; [13]): -0.52% and 1.83% and 5.79% and 7.02% and 0.41% and 6.78% and -2.15% and -0.66%
pS338/pS339 signal, raw (C5a1 [3]; [13]): 0.1914 and 0.1791 and 0.1104 and 0.1268 and 0.0959 and 0.1124 and 0.1275 and 0.1571
pS338/pS339 signal, raw (C5a1 [3]; C028 0.1 µM, Control-C5aR1-HEK293): 0.1875 and 0.2099 and 0.2083 and 0.1715 and 0.263 and 0.2723 and 0.28 and 0.2721
pS338/pS339 normalized (C5a1 [3]; C028 0.1 µM, ΔGRK2/3-C5aR1-HEK293): 4.55% and 4.75% and 2.09% and -0.74% and 0.95% and 1.57% and 2.54% and 3.37%
pS338/pS339 normalized (C5a1 [3]; [14]): 6.77% and 12.22% and 6.57% and 4.14% and 6.71% and 9.50% and 2.76% and 5.82%
pS338/pS339 signal, raw (C5a1 [3]; [14]): 0.1912 and 0.1825 and 0.1703 and 0.1709 and 0.1421 and 0.1595 and 0.2215 and 0.2673
pS338/pS339 normalized (C5a1 [3]; [15]): 78.61% and 86.74% and 85.12% and 75.44% and 123.11% and 90.88% and 72.00% and 99.45%
pS338/pS339 signal, raw (C5a1 [3]; [15]): 0.8634 and 0.695 and 1.1554 and 0.7958 and 0.9051 and 1.0337 and 0.9787 and 0.9442
pS338/pS339 normalized (C5a1 [3]; C028 10 µM, Control-C5aR1-HEK293, concentration series): 92.58% and 105.20% and 87.15% and 107.72% and 114.82% and 97.73% and 96.48% and 106.05%
pS338/pS339 signal, raw (C5a1 [3]; C028 10 µM, Control-C5aR1-HEK293, last 0/10 µM pair of Control block): 0.8171 and 0.9223 and 0.6743 and 0.8573 and 1.0399 and 1.1081
pS338/pS339 signal, raw (C5a1 [3]; C028 10 µM, Control-C5aR1-HEK293 beside ΔGRK5/6 block): 1.1983 and 1.0585 and 0.7547 and 0.8921 and 1.3122 and 1.2783 and 1.4177 and 1.3015

Reference: paper PMC9646841, “A bead-based GPCR phosphorylation immunoassay for high-throughput ligand profiling and GRK inhibitor screening” (Communications Biology, 2022)
